This is an account of results in patent US11180444B2, “Polyimino ketoaldehydes” (NOVUM SPERO LTD., priority 2017, dated 2021).

Experiment [1] deals with Avian Pathogenic Escherichia coli multi-resistant strain. The experiment is described as follows: Inhibition zones, disc test. The class given is cell-based.
Experiment [2] has as its system gram-positive and gram-negative bacteria including multi-resistant bacteria. Briefly: In vitro testing of antibacterial properties. The class given is cell-based.

Entries after “also recorded” stand apart in the source; their conditions may differ.

In the case of “1-amino-tetratriacontyl-henicosa-20-on-21-al [CM]”, the Inhibition zone in experiment [1] (10 μL of solution (350 μg/1 μL) per disc) stood at 8 mm; in experiment [1] (15 μL of solution (350 μg/1 μL) per disc), 9 mm; in experiment [1] (20 μL of solution (350 μg/1 μL) per disc), 10 mm. The “Inhibitory activity against the strain (in words)” value in experiment [1] (compared with antibiotics in their standard dose) is recorded as “has an effect on the inhibition; also recorded: shows inhibitory activity”. In experiment [2], the “Antibacterial properties (in words)” value is on record as “shows antibacterial properties”.
`CC1(C)S[C@@H]2[C@H](NC(=O)[C@H](N)c3ccc(O)cc3)C(=O)N2[C@H]1C(=O)O` [Amoxicillin, reference compound] gave a zone of inhibition at 25 µg/disc in experiment [1] (Escherichia coli, 25 μg per disc) of 0 mm.
On to `Cc1cc(C)nc(NS(=O)(=O)c2ccc(N)cc2)n1` [Sulfadimidine, reference compound], for which the zone of inhibition at 300 µg/disc in experiment [1] (Escherichia coli, 300 μg per disc) amounted to 0 mm.
Consider `CN(C)[C@@H]1C(O)=C(C(N)=O)C(=O)[C@@]2(O)C(O)=C3C(=O)c4c(O)cccc4[C@@](C)(O)[C@H]3C[C@@H]12` [Tetracycline, reference compound], for which the zone of inhibition at 30 µg/disc in experiment [1] (Escherichia coli, read-out: Inhibition zone) was determined as 0 mm.
For the molecule “Trimethoprim sulphate [reference compound]”, the Inhibition zone in experiment [1] (1.25 μg + 23.75 μg per disc) came to 0 mm.
